{"source": "PubChem BioAssay AID1259408", "about": "(Genetic Toxicology Data Bank (GENE-TOX), 2018)", "test_system": "GENE-TOX genotoxicity assays, various organisms and cells", "test": "GENE-TOX mutagenicity studies", "conditions": "for call: Assay Type: In vivo carcinogenicity studies", "key": {"[1]": {"conditions": "Species/Cell Type: Chinese hamster lung (V79) cells, Assay Type: Forward gene mutation at the HPRT or ouabain locus, Assay Code: V79+, Evaluation Type: Evaluation A (Pre-1980)"}, "[2]": {"conditions": "Species/Cell Type: Nonhuman, Assay Code: CCG+L, Evaluation Type: Evaluation A (Pre-1980)"}, "[3]": {"conditions": "Species/Cell Type: Salmonella typhimurium (one or more of the five standard strains: TA98, TA100, TA1535, TA1537, and TA1538), Assay Type: Histidine reverse gene mutation, Ames assay, Assay Code: SAL+*, Activation: With metabolic activation, Evaluation Type: Evaluation A (Pre-1980)"}, "[4]": {"conditions": "Species/Cell Type: Human lymphocytes, Assay Type: Sister-chromatid exchange (SCE) in vivo, Assay Code: SCY+, Evaluation Type: Evaluation B (Post-1980)"}, "[5]": {"conditions": "Species/Cell Type: Drosophila melanogaster, Assay Type: Sex-linked recessive lethal gene mutation, Assay Code: SRLT, Evaluation Type: Evaluation A (Pre-1980)"}, "[6]": {"conditions": "Species/Cell Type: Escherichia coli polA (W3119 vs P3478), Assay Type: Rec-assay, DNA effects (bacterial DNA repair), Assay Code: RE1+, Evaluation Type: Evaluation A (Pre-1980)"}, "[7]": {"conditions": "Species/Cell Type: Rodents, Sex: Male, Assay Type: Dominant lethal test, Assay Code: DLT-, Evaluation Type: Evaluation A (Pre-1980)"}, "[8]": {"conditions": "Species/Cell Type: Mammalian polychromatic erythrocytes, Assay Type: Micronucleus test, chromosome aberrations, Assay Code: MNTT, Evaluation Type: Evaluation A (Pre-1980)"}, "[9]": {"conditions": "Species/Cell Type: Mammalian polychromatic erythrocytes, Assay Type: Micronucleus test, chromosome aberrations, Assay Code: MNT+, Evaluation Type: Evaluation B (Post-1980)"}, "[10]": {"conditions": "Species/Cell Type: Mouse, Sex: Male, Assay Type: Sperm morphology, Assay Code: SPI-, Evaluation Type: Evaluation A (Pre-1980)"}, "[11]": {"conditions": "Species/Cell Type: Syrian hamster embryo (SHE) cells, Assay Type: Cell transformation, clonal assay, Assay Code: CTC-, Evaluation Type: Evaluation A (Pre-1980)"}, "[12]": {"conditions": "Species/Cell Type: Fischer rat embryo (RLV/1706) cells, Assay Type: Cell transformation, viral enhanced, Assay Code: CTR-, Evaluation Type: Evaluation A (Pre-1980)"}}, "note": "Active and inactive are the calls of the source. The rule behind the calls is not given here."}
{"smiles": "Cc1ccc2cc3c4c(ccc3c3c2c1CC3)C(O)C(O)C=C4", "note": "(stereo not given)", "values": [{"measurement": "mutagenic call", "setting": "[1]", "value": "active; positive"}, {"measurement": "call", "setting": "[2]", "value": "active; positive"}, {"measurement": "mutagenic call", "setting": "[3]", "value": "active; positive"}]}
{"smiles": "CCCNC(=O)NS(=O)(=O)c1ccc(Cl)cc1", "values": [{"measurement": "mutagenic call", "setting": "[4]", "value": "active; positive"}, {"measurement": "mutagenic call", "setting": "Species/Cell Type: Mammalian polychromatic erythrocytes, Assay Type: Micronucleus test, chromosome aberrations, Assay Code: MNT+, Evaluation Type: Evaluation A (Pre-1980)", "value": "active; positive"}, {"measurement": "mutagenic call", "setting": "Species/Cell Type: Nonhuman, Assay Type: Sister-chromatid exchange (SCE) in vitro, Assay Code: SC2+D, Dose Response: With dose response, Evaluation Type: Evaluation A (Pre-1980)", "value": "active; positive"}, {"measurement": "mutagenic call", "setting": "Species/Cell Type: Nonhuman, Assay Type: Sister-chromatid exchange (SCE) in vivo, Assay Code: SC3+D, Dose Response: With dose response, Evaluation Type: Evaluation B (Post-1980)", "value": "active; positive"}]}
{"smiles": "[Cl][Ge]([Cl])([Cl])[Cl]", "values": [{"measurement": "mutagenic call", "setting": "Species/Cell Type: Bacillus subtilis (H17 vs M45), Assay Type: Rec-assay, spot test, DNA effects (bacterial DNA repair), Assay Code: REW+, Evaluation Type: Evaluation A (Pre-1980)", "value": "active; positive"}]}
{"smiles": "CN=c1ccc2cc3ccc(NC)cc3oc-2c1", "values": [{"measurement": "mutagenic call", "setting": "[5]", "value": "no conclusion"}]}
{"smiles": "O=C(O)c1c(Br)c(Br)c(Br)c(Br)c1C(=O)O", "values": [{"measurement": "mutagenic call", "setting": "Species/Cell Type: Salmonella typhimurium (one or more of the five standard strains: TA98, TA100, TA1535, TA1537, and TA1538), Assay Type: Histidine reverse gene mutation, Ames assay, Assay Code: SAL-, Evaluation Type: Evaluation A (Pre-1980)", "value": "inactive; negative"}]}
{"smiles": "ONc1ccc2c(c1)Cc1ccccc1-2", "values": [{"measurement": "mutagenic call", "setting": "[5]", "value": "no conclusion"}, {"measurement": "mutagenic call", "setting": "[6]", "value": "active; positive"}, {"measurement": "mutagenic call", "setting": "Species/Cell Type: Salmonella typhimurium (one or more of the five standard strains: TA98, TA100, TA1535, TA1537, and TA1538), Assay Type: Histidine reverse gene mutation, Ames assay, Assay Code: SAL+, Evaluation Type: Evaluation A (Pre-1980)", "value": "active; positive"}]}
{"smiles": "O=NN1CCCC1", "values": [{"measurement": "mutagenic call", "setting": "[1]", "value": "active; positive"}, {"measurement": "call", "setting": "Species/Cell Type: Nonhuman, Assay Code: CCG+, Evaluation Type: Evaluation A (Pre-1980)", "value": "active; positive"}, {"measurement": "mutagenic call", "setting": "Species/Cell Type: Nonhuman, Assay Type: Sister-chromatid exchange (SCE) in vivo, Assay Code: SC3+, Evaluation Type: Evaluation B (Post-1980)", "value": "active; positive"}, {"measurement": "mutagenic call", "setting": "Species/Cell Type: Rat primary hepatocytes, Assay Type: Unscheduled DNA synthesis (UDS) in vitro, DNA effects, Assay Code: UDP+D, Dose Response: With dose response, Evaluation Type: Evaluation A (Pre-1980)", "value": "active; positive"}, {"measurement": "mutagenic call", "setting": "[3]", "value": "active; positive"}]}
{"smiles": "CN(CCO)c1nc(Nc2ccccc2)nc(Nc2ccc(/C=C/c3ccc(Nc4nc(Nc5ccccc5)nc(N(C)CCO)n4)cc3S(=O)(=O)O)c(S(=O)(=O)O)c2)n1", "values": [{"measurement": "mutagenic call", "setting": "[7]", "value": "inactive; negative"}, {"measurement": "mutagenic call", "setting": "Species/Cell Type: Salmonella typhimurium (one or more of the five standard strains: TA98, TA100, TA1535, TA1537, and TA1538), Assay Type: Histidine reverse gene mutation, Ames assay, Assay Code: SALT, Evaluation Type: Evaluation A (Pre-1980)", "value": "no conclusion"}]}
{"smiles": "CCCOS(C)(=O)=O", "values": [{"measurement": "mutagenic call", "setting": "Species/Cell Type: Hordeum vulgare (barley), Assay Type: Chromosome aberrations, Assay Code: HOC+, Evaluation Type: Evaluation A (Pre-1980)", "value": "active; positive"}, {"measurement": "mutagenic call", "setting": "Species/Cell Type: Hordeum vulgare (barley), Assay Type: Gene mutation, Assay Code: HOM+D, Dose Response: With dose response, Evaluation Type: Evaluation A (Pre-1980)", "value": "active; positive"}, {"measurement": "mutagenic call", "setting": "Species/Cell Type: Mammalian germ cells, Sex: Male, Assay Type: Chromosome aberrations in vivo, Assay Code: CY9T, Evaluation Type: Evaluation A (Pre-1980)", "value": "no conclusion"}, {"measurement": "mutagenic call", "setting": "Species/Cell Type: Mouse germ cells, Sex: Male, Assay Type: Unscheduled DNA synthesis (UDS) in vivo, DNA effects, Assay Code: UDT+, Evaluation Type: Evaluation A (Pre-1980)", "value": "active; positive"}, {"measurement": "mutagenic call", "setting": "Species/Cell Type: Mouse, Sex: Male, Assay Type: Specific locus test, gene mutation, Assay Code: SLT+, Evaluation Type: Evaluation A (Pre-1980)", "value": "active; positive"}, {"measurement": "mutagenic call", "setting": "Species/Cell Type: Rodents, Sex: Male, Assay Type: Dominant lethal test, Assay Code: DLT+, Evaluation Type: Evaluation A (Pre-1980)", "value": "active; positive"}]}
{"smiles": "Cc1cccc2cccnc12", "values": [{"measurement": "mutagenic call", "setting": "[3]", "value": "active; positive"}]}
{"smiles": "Nc1cc([N+](=O)[O-])ccc1O", "values": [{"measurement": "mutagenic call", "setting": "[8]", "value": "no conclusion"}, {"measurement": "mutagenic call", "setting": "Species/Cell Type: Neurospora crassa, Assay Type: Aneuploidy, chromosome aberrations, Assay Code: NEN-, Evaluation Type: Evaluation A (Pre-1980)", "value": "inactive; negative"}, {"measurement": "mutagenic call", "setting": "[7]", "value": "inactive; negative"}]}
{"smiles": "Nc1ccc(-c2ccc(-c3ccc(N)cc3)cc2)cc1", "values": [{"measurement": "mutagenic call", "setting": "[9]", "value": "active; positive"}]}
{"smiles": "CCC1(c2ccccc2)C(=O)NC(=O)NC1=O", "values": [{"measurement": "mutagenic call", "setting": "[4]", "value": "active; positive"}, {"measurement": "mutagenic call", "setting": "[9]", "value": "active; positive"}, {"measurement": "mutagenic call", "setting": "[8]", "value": "no conclusion"}, {"measurement": "mutagenic call", "setting": "[10]", "value": "inactive; negative"}, {"measurement": "mutagenic call", "setting": "[11]", "value": "inactive; negative"}]}
{"smiles": "Nc1ccccc1Cl", "values": [{"measurement": "mutagenic call", "setting": "[6]", "value": "active; positive"}, {"measurement": "mutagenic call", "setting": "[10]", "value": "inactive; negative"}, {"measurement": "mutagenic call", "setting": "Species/Cell Type: Saccharomyces cerevisiae, Assay Type: Mitotic recombination or gene conversion, Assay Code: YEH-, Evaluation Type: Evaluation A (Pre-1980)", "value": "inactive; negative"}, {"measurement": "mutagenic call", "setting": "[11]", "value": "inactive; negative"}]}
{"smiles": "C[C@]12CC[C@@H](O)C[C@@H]1CC[C@@H]1[C@@H]2CC[C@]2(C)C(=O)CC[C@@H]12", "values": [{"measurement": "mutagenic call", "setting": "[10]", "value": "inactive; negative"}]}
{"smiles": "COC1=C(N)C(=O)c2nc(-c3nc(C(=O)O)c(C)c(-c4ccc(OC)c(OC)c4O)c3N)ccc2C1=O", "values": [{"measurement": "mutagenic call", "setting": "[12]", "value": "inactive; negative"}, {"measurement": "mutagenic call", "setting": "Species/Cell Type: Human cell culture, Assay Type: Chromosome aberrations in vitro, Assay Code: CYZ+, Evaluation Type: Evaluation A (Pre-1980)", "value": "active; positive"}, {"measurement": "mutagenic call", "setting": "Species/Cell Type: Human diploid fibroblasts, Assay Type: Unscheduled DNA synthesis (UDS) in vitro, DNA effects, Assay Code: UDH+, Evaluation Type: Evaluation A (Pre-1980)", "value": "active; positive"}, {"measurement": "mutagenic call", "setting": "Species/Cell Type: Mammalian oocytes or early embryo, Assay Type: Chromosome aberrations in vivo, Assay Code: CYO+, Evaluation Type: Evaluation A (Pre-1980)", "value": "active; positive"}, {"measurement": "mutagenic call", "setting": "Species/Cell Type: Nonhuman, Assay Type: Sister-chromatid exchange (SCE) in vivo, Assay Code: SC3+, Evaluation Type: Evaluation A (Pre-1980)", "value": "active; positive"}, {"measurement": "mutagenic call", "setting": "Species/Cell Type: Vicia faba, Assay Type: Chromosome aberrations, Assay Code: VIC+, Evaluation Type: Evaluation A (Pre-1980)", "value": "active; positive"}]}
{"smiles": "O=c1c(O)c(-c2ccccc2)oc2cc(O)cc(O)c12", "values": [{"measurement": "mutagenic call", "setting": "Species/Cell Type: Mammalian polychromatic erythrocytes, Assay Type: Micronucleus test, chromosome aberrations, Assay Code: MNT+U, Dose Response: Unconfirmed positive response, Evaluation Type: Evaluation B (Post-1980)", "value": "active; positive"}, {"measurement": "mutagenic call", "setting": "Species/Cell Type: Nonhuman, Assay Type: Sister-chromatid exchange (SCE) in vitro, Assay Code: SC2+*, Activation: With metabolic activation, Evaluation Type: Evaluation B (Post-1980)", "value": "active; positive"}]}
{"smiles": "O", "values": [{"measurement": "mutagenic call", "setting": "Species/Cell Type: Bacillus subtilis (H17 vs M45), Assay Type: Rec-assay, spot test, DNA effects (bacterial DNA repair), Assay Code: REWT, Evaluation Type: Evaluation A (Pre-1980)", "value": "no conclusion"}, {"measurement": "mutagenic call", "setting": "Species/Cell Type: Nonhuman, Assay Type: Sister-chromatid exchange (SCE) in vitro, Assay Code: SC2T, Evaluation Type: Evaluation B (Post-1980)", "value": "no conclusion"}, {"measurement": "mutagenic call", "setting": "Species/Cell Type: Syrian hamster embryo (SA7/SHE) cells, Assay Type: Cell transformation, viral enhanced, Assay Code: CT7-, Evaluation Type: Evaluation A (Pre-1980)", "value": "inactive; negative"}]}
{"smiles": "C=C(C)[C@@H]1CCC(C)=C[C@H]1c1c(O)cc(CCCCC)cc1O", "values": [{"measurement": "mutagenic call", "setting": "[12]", "value": "inactive; negative"}, {"measurement": "mutagenic call", "setting": "[4]", "value": "active; positive"}, {"measurement": "mutagenic call", "setting": "[9]", "value": "active; positive"}, {"measurement": "mutagenic call", "setting": "[10]", "value": "inactive; negative"}]}
{"smiles": "CCCN(N=O)C(N)=O", "values": [{"measurement": "mutagenic call", "setting": "Species/Cell Type: Human diploid fibroblasts, Assay Type: Unscheduled DNA synthesis (UDS) in vitro, DNA effects, Assay Code: UDH-, Evaluation Type: Evaluation A (Pre-1980)", "value": "inactive; negative"}, {"measurement": "call", "setting": "[2]", "value": "active; positive"}, {"measurement": "mutagenic call", "setting": "Species/Cell Type: Saccharomyces cerevisiae, Assay Type: Mitotic recombination or gene conversion, Assay Code: YEC+, Evaluation Type: Evaluation A (Pre-1980)", "value": "active; positive"}]}
{"smiles": "c1ccc2c(c1)ncn2CN1CCCCC1", "values": [{"measurement": "mutagenic call", "setting": "Species/Cell Type: Arabidopsis species, Assay Type: Gene mutation, Assay Code: ARM-, Evaluation Type: Evaluation A (Pre-1980)", "value": "inactive; negative"}]}
